# Results from US12324802B2, “Modulators of cystic fibrosis transmembrane conductance regulator” (Vertex Pharmaceuticals Incorporated, priority 2020, dated 2025).
# Target: T1, CFTR (F508del/MF-HBE cells) (Homo sapiens, UniProt P13569, DEL508-508)
# T1 construct: human bronchial epithelial (HBE) cells derived from CF subjects heterozygous for F508del and a minimal function CFTR mutation; endogenous in cells; host or cells: primary human bronchial epithelial cells from CF subjects (F508del/MF genotype)
# T1 sequence (P13569 with tags, fused parts or gaps DEL508-508): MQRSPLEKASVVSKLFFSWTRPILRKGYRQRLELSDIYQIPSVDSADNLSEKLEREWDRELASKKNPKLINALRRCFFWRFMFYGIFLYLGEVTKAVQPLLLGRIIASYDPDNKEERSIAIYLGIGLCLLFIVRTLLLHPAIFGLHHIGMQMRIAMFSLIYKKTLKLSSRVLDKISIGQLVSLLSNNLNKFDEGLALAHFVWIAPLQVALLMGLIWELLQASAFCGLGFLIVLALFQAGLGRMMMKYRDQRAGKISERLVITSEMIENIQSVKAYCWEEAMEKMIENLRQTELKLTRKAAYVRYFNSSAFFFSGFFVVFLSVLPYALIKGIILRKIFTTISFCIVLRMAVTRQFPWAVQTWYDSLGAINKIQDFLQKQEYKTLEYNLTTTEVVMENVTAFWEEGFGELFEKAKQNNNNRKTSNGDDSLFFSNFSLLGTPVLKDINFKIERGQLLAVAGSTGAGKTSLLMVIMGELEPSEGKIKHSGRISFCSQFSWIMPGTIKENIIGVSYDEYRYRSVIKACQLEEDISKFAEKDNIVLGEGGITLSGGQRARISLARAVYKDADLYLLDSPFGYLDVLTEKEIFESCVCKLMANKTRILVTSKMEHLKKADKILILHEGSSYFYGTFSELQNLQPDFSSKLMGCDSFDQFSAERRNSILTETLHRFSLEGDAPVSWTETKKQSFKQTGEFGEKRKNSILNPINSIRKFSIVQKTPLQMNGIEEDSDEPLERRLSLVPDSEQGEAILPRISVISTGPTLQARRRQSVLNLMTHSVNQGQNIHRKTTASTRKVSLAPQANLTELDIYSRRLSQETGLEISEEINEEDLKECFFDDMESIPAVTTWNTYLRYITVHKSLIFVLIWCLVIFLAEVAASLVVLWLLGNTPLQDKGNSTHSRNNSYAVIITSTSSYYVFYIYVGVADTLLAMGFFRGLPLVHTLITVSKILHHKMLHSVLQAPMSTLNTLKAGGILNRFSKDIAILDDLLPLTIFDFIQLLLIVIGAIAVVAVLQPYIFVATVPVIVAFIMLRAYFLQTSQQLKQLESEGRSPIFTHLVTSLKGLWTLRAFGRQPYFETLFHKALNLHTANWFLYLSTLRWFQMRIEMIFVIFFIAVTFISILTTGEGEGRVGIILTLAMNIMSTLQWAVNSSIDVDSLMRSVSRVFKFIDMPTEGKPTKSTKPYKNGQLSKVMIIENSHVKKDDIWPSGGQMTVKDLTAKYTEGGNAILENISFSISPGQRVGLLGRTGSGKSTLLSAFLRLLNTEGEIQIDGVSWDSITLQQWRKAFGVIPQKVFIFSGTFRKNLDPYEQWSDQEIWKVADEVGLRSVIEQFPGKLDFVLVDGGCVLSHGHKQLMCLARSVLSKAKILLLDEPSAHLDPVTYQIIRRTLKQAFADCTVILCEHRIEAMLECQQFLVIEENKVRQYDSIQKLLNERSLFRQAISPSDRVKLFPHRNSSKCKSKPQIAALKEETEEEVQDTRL
# Assay: Ussing chamber assay of CFTR-mediated short-circuit currents (identification of potentiator compounds)
# Type: cell-based
# Settings: CFTR-mediated ISC in F508del/MF-HBE cells; incubated 18-24 hours at 37° C. with 10 μM (14S)-8-[3-(2-{dispiro[2.0.2.1]heptan-7-yl}ethoxy)-1H-pyrazol-1-yl]-...-2,2,4-trione, 20% human serum
# Outline: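 Short-circuit current was voltage-clamped at 0 mV and 37 °C in pH 7.4 HEPES buffers, with amiloride (30 μM) on the apical side. The CFTR component was defined as forskolin (20 μM) peak minus residual current after BPO/GlyH-101/CFTRinh-172 at 20 μM each. Cells had been pretreated 18–24 h with potentiator concentrations and 10 μM corrector in 20% human serum, kept throughout the measurement.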
row,SMILES,EC50
1,"CP(C)(=O)c1cc(N)c2nc1N1CCC[C@H]1CCCCCC(O)(C(F)(F)F)C1=NN=C2O1 (single isomer, unassigned) [Compound 98]",> 1000 nM
2,"CP(C)(=O)c1cc(N)c2nc1N1CCC[C@H]1CCCCCC(O)(C(F)(F)F)C1=NN=C2O1 (single isomer, unassigned) [Compound 99]",> 1000 nM
3,"Nc1cc(C(F)(F)F)c2nc1-c1nnc(o1)C(O)(CO)CCCCC[C@@H]1CCCN21 (single isomer, unassigned) [Compound 100]",500 to 1000 nM
4,"Nc1cc(C(F)(F)F)c2nc1-c1nnc(o1)C(O)(CO)CCCCC[C@@H]1CCCN21 (single isomer, unassigned) [Compound 101]",< 500 nM
5,"Nc1cc(C(F)(F)F)c2nc1-c1nnc(o1)C(O)(C(F)(F)F)CCCCCC(CO)N2 (single isomer, unassigned) [Compound 102, 17-amino-12-(hydroxymethyl)-6,15-bis(trifluoromethyl)-19-oxa-3,4,13,18-tetrazatricyclo[12.3.1.12,5]nonadeca-1(18),2,4,14,16-pentaen-6-ol]",< 500 nM
6,"Nc1cc(C(F)(F)F)c2nc1-c1nnc(o1)C(O)(C(F)(F)F)CCCCCC(CO)N2 (single isomer, unassigned) [Compound 103, 17-amino-12-(hydroxymethyl)-6,15-bis(trifluoromethyl)-19-oxa-3,4,13,18-tetrazatricyclo[12.3.1.12,5]nonadeca-1(18),2,4,14,16-pentaen-6-ol]",< 500 nM
7,"Nc1cc(C(F)(F)F)c2nc1-c1nnc(o1)C(O)(C(F)(F)F)CCCCCC(CO)N2 (single isomer, unassigned) [Compound 104, 17-amino-12-(hydroxymethyl)-6,15-bis(trifluoromethyl)-19-oxa-3,4,13,18-tetrazatricyclo[12.3.1.12,5]nonadeca-1(18),2,4,14,16-pentaen-6-ol]",< 500 nM
8,"Nc1cc(C(F)(F)F)c2nc1-c1nnc(o1)C(O)(C(F)(F)F)CCCCCC(CO)N2 (single isomer, unassigned) [Compound 105, 17-amino-12-(hydroxymethyl)-6,15-bis(trifluoromethyl)-19-oxa-3,4,13,18-tetrazatricyclo[12.3.1.12,5]nonadeca-1(18),2,4,14,16-pentaen-6-ol]",> 1000 nM
9,"Nc1cc(C(F)(F)F)c2nc1-c1nnc(o1)C(O)(C(F)(F)F)CCCCCCC(=O)N2 (single isomer, unassigned) [Compound 106, 18-Amino-6-hydroxy-6,16-bis(trifluoromethyl)-20-oxa-3,4,14,19-tetrazatricyclo[13.3.1.12,5]icosa-1(19),2,4,15,17-pentaen-13-one]",< 500 nM
10,"Nc1cc(C(F)(F)F)c2nc1-c1nnc(o1)C(O)(C(F)(F)F)CCCCCCC(=O)N2 (single isomer, unassigned) [Compound 107, 18-amino-6-hydroxy-6,16-bis(trifluoromethyl)-20-oxa-3,4,14,19-tetrazatricyclo[13.3.1.12,5]icosa-1(19),2,4,15,17-pentaen-13-one]",> 1000 nM
11,"Nc1cc(C(F)(F)F)c2nc1-c1nnc(o1)C(O)(C(F)(F)F)CCCCCC(=O)N2 (single isomer, unassigned) [Compound 108, 17-amino-6-hydroxy-6,15-bis(trifluoromethyl)-19-oxa-3,4,13,18-tetrazatricyclo[12.3.1.12,5]nonadeca-1(18),2,4,14,16-pentaen-12-one]",< 500 nM
12,"Nc1cc(C(F)(F)F)c2nc1-c1nnc(o1)C(O)(C(F)(F)F)CCCCCC(=O)N2 (single isomer, unassigned) [Compound 109, 17-amino-6-hydroxy-6,15-bis(trifluoromethyl)-19-oxa-3,4,13,18-tetrazatricyclo[12.3.1.12,5]nonadeca-1(18),2,4,14,16-pentaen-12-one]",> 1000 nM
13,"Nc1cc(C(F)(F)F)c2nc1-c1nnc(o1)C(O)(C(F)(F)F)CCCCCC1CCS(=O)(=O)N21 (single isomer, unassigned) [Compound 110, 20-amino-6-hydroxy-6,18-bis(trifluoromethyl)-22-oxa-15λ6-thia-3,4,16,21-tetraazatetracyclo[15.3.1.12,5.012,16]docosa-1(21),2,4,17,19-pentaene-15,15-dione]",< 500 nM
14,"Nc1cc(C(F)(F)F)c2nc1-c1nnc(o1)C(O)(C(F)(F)F)CCCCCC1CCS(=O)(=O)N21 (single isomer, unassigned) [Compound 111, 20-amino-6-hydroxy-6,18-bis(trifluoromethyl)-22-oxa-15λ6-thia-3,4,16,21-tetraazatetracyclo[15.3.1.12,5.012,16]docosa-1(21),2,4,17,19-pentaene-15,15-dione]",> 1000 nM
15,"Nc1cc(C(F)(F)F)c2nc1-c1nnc(o1)C(O)(C(F)(F)F)CCCCCC1CCS(=O)(=O)N21 (single isomer, unassigned) [Compound 112, 20-amino-6-hydroxy-6,18-bis(trifluoromethyl)-22-oxa-15λ6-thia-3,4,16,21-tetraazatetracyclo[15.3.1.12,5.012,16]docosa-1(21),2,4,17,19-pentaene-15,15-dione]",500 to 1000 nM
16,"Nc1cc(C(F)(F)F)c2nc1-c1nnc(o1)C(O)(C(F)(F)F)CCCCCC1CCS(=O)(=O)N21 (single isomer, unassigned) [Compound 113, 20-amino-6-hydroxy-6,18-bis(trifluoromethyl)-22-oxa-15λ6-thia-3,4,16,21-tetraazatetracyclo[15.3.1.12,5.012,16]docosa-1(21),2,4,17,19-pentaene-15,15-dione]",> 1000 nM
17,"COc1cc(N)c2nc1N1CCC[C@H]1CCCCCC(O)(C(F)(F)F)C1=NN=C2O1 (single isomer, unassigned) [Compound 114]",< 500 nM
18,"COc1cc(N)c2nc1N1CCC[C@H]1CCCCCC(O)(C(F)(F)F)C1=NN=C2O1 (single isomer, unassigned) [Compound 115]",> 1000 nM
19,"Nc1cc(C(F)(F)F)c2nc1-c1nnc(o1)C(O)(C(F)(F)F)CCCCC[C@@H]1COCC(=O)N21 (single isomer, unassigned) [Compound 116]",< 500 nM
20,"Nc1cc(C(F)(F)F)c2nc1-c1nnc(o1)C(O)(C(F)(F)F)CCCCC[C@@H]1COCC(=O)N21 (single isomer, unassigned) [Compound 117]",> 1000 nM
21,"Nc1cc(C(F)(F)F)c2nc1-c1nnc(o1)C(O)(C(F)(F)F)CCCCCC(c1ccccc1)N2 (single isomer, unassigned) [Compound 119, 17-amino-12-phenyl-6,15-bis(trifluoromethyl)-19-oxa-3,4,13,18-tetrazatricyclo[12.3.1.12,5]nonadeca-1(18),2,4,14,16-pentaen-6-ol]",< 500 nM
22,"Nc1cc(C(F)(F)F)c2nc1-c1nnc(o1)C(O)(C(F)(F)F)CCCCCC(c1ccccc1)N2 (single isomer, unassigned) [Compound 120, 17-amino-12-phenyl-6,15-bis(trifluoromethyl)-19-oxa-3,4,13,18-tetrazatricyclo[12.3.1.12,5]nonadeca-1(18),2,4,14,16-pentaen-6-ol]",< 500 nM
23,"Nc1cc(C(F)(F)F)c2nc1-c1nnc(o1)C(O)(C(F)(F)F)CCCCCC(c1ccccc1)N2 (single isomer, unassigned) [Compound 122, 17-amino-12-phenyl-6,15-bis(trifluoromethyl)-19-oxa-3,4,13,18-tetrazatricyclo[12.3.1.12,5]nonadeca-1(18),2,4,14,16-pentaen-6-ol]",> 1000 nM
24,"Nc1cc(C(F)(F)F)c2nc1-c1nnc(o1)C(O)(C(F)(F)F)c1ccc(F)c(c1)CCC[C@@H]1CCCN21 (single isomer, unassigned) [Compound 130]",> 1000 nM
25,"Nc1cc(C(F)(F)F)c2nc1-c1nnc(o1)C(O)(C(F)(F)F)c1ccc(F)c(c1)CCC[C@@H]1CCCN21 (single isomer, unassigned) [Compound 131]",< 500 nM
26,"Nc1cc(S(=O)(=O)c2ccccc2)c2nc1-c1nnc(o1)C(O)(C(F)(F)F)CCCCC[C@@H]1CCCN21 (single isomer, unassigned) [Compound 140]",> 1000 nM
27,"Nc1cc(S(=O)(=O)c2ccccc2)c2nc1-c1nnc(o1)C(O)(C(F)(F)F)CCCCC[C@@H]1CCCN21 (single isomer, unassigned) [Compound 141]",< 500 nM
28,"CN(C)C(=O)C1CCCCCC(O)(C(F)(F)F)C2=NN=C(O2)c2nc(c(C(F)(F)F)cc2N)N1 (single isomer, unassigned) [Compound 148, 17-amino-6-hydroxy-N,N-dimethyl-6,15-bis(trifluoromethyl)-19-oxa-3,4,13,18-tetrazatricyclo[12.3.1.12,5]nonadeca-1(18),2,4,14,16-pentaene-12-carboxamide]",< 500 nM
29,"CN(C)C(=O)C1CCCCCC(O)(C(F)(F)F)C2=NN=C(O2)c2nc(c(C(F)(F)F)cc2N)N1 (single isomer, unassigned) [Compound 149, 17-amino-6-hydroxy-N,N-dimethyl-6,15-bis(trifluoromethyl)-19-oxa-3,4,13,18-tetrazatricyclo[12.3.1.12,5]nonadeca-1(18),2,4,14,16-pentaene-12-carboxamide]",> 1000 nM
30,"CN(C)C(=O)C1CCCCCC(O)(C(F)(F)F)C2=NN=C(O2)c2nc(c(C(F)(F)F)cc2N)N1 (single isomer, unassigned) [Compound 150, 17-amino-6-hydroxy-N,N-dimethyl-6,15-bis(trifluoromethyl)-19-oxa-3,4,13,18-tetrazatricyclo[12.3.1.12,5]nonadeca-1(18),2,4,14,16-pentaene-12-carboxamide]",> 1000 nM
